For 1 compound, IC50 results are on record in BindingDB's records for doi:10.1016/s0960-894x(00)00360-7 (Smithkline Beecham Pharmaceuticals, 2000).

The assay has as its target Arginine--tRNA ligase (Staphylococcus aureus). As to the kind of experiment: Inhibitory activity against cognate Staphylococcus aureus Arginyl-tRNA synthetase.

In general, IC50 refers to the concentration needed to halve the response being measured. Higher therefore signals weaker potency. Compound `N=C(N)NCCC[C@H](N)C(=O)NS(=O)(=O)OC[C@H]1O[C@@H](n2cnc3c(N)ncnc32)[C@H](O)[C@@H]1O` [Aminoalkyl adenylate and aminoacyl sulfamate analogue] displayed an IC50 of 4.5 nM.
